The source of these data is BindingDB's records for doi:10.1021/acs.jmedchem.5b00984 (Astrazeneca, 2015).

The target in the test is T1, Progesterone receptor (Homo sapiens, UniProt P06401).
T1 sequence (P06401 whole entry): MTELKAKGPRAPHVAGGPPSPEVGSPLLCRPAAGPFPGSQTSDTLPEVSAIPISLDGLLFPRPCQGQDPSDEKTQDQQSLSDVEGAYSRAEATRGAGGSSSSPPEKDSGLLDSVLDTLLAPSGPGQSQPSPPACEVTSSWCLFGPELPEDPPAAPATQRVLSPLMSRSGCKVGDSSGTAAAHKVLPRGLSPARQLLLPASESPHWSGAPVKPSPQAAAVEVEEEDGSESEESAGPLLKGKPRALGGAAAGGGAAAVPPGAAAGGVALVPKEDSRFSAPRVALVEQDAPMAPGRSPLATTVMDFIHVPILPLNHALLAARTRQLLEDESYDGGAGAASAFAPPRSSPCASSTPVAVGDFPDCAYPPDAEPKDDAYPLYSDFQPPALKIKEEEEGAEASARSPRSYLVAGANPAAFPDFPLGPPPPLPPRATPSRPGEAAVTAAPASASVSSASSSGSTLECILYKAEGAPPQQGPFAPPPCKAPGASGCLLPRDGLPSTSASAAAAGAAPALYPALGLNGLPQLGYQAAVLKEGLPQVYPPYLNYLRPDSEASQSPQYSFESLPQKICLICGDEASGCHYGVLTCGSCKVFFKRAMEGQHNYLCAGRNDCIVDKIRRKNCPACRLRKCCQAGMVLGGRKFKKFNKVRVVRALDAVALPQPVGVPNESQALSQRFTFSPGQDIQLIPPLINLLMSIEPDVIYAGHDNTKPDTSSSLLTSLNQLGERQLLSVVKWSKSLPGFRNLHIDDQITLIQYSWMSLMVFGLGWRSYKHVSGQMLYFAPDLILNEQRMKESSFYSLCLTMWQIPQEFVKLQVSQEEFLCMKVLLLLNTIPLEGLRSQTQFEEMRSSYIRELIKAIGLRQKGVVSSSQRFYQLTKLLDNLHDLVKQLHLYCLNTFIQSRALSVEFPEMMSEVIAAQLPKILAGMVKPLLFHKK
In words: Antagonist activity at progesterone receptor in human MCF cells assessed as estradiol-induced receptor response.

Regarding `C[C@@H]1Cc2c([nH]c3ccccc23)[C@@H](c2ccc(Cl)cc2)N1CCC(=O)O`, the IC50 came to 1510 nM. As to `CC/C(=C(\c1ccccc1)c1ccc(/C=C/C(=O)O)cc1)c1ccccc1` [(E)-3-[4-((Z)-1,2-Diphenyl-but-1-enyl)-phenyl]-acrylic acid], the IC50 came out at 3980 nM. As to `CC(C)CN1[C@H](c2c(F)cc(/C=C/C(=O)O)cc2F)c2[nH]c3ccccc3c2C[C@H]1C`, the IC50 was determined as 0.832 nM.

As to `C[C@@H]1Cc2c([nH]c3ccccc23)[C@@H](c2ccc(/C=C/C(=O)O)cc2)N1CC(C)(C)F`, the IC50 was 3.5 nM. For the compound `C[C@@H]1Cc2c([nH]c3ccc(O)cc23)[C@@H](c2ccc(Cl)cc2)N1CCO`, the IC50 came out at 912 nM. Regarding `OCCN1CCc2c([nH]c3ccccc23)C1c1ccc(Cl)cc1` (centres undefined), the IC50 is 2690 nM. Turning to `C[C@@H](CO)CN1[C@H](c2ccc(/C=C/C(=O)O)cc2)c2[nH]c3ccccc3c2C[C@H]1C`, the IC50 was 50 nM. On to `C[C@]12CC[C@@H]3c4ccc(O)cc4C[C@@H](CCCCCCCCC[S+]([O-])CCCC(F)(F)C(F)(F)F)[C@H]3[C@@H]1CC[C@@H]2O` (some centres undefined), for which the IC50 is 0.209 nM.

`CC/C(=C(\c1ccc(O)cc1)c1ccc(/C=C/C(=O)O)cc1)c1ccccc1` [GW7604]: the IC50 was 12 nM. Take `C[C@@H]1Cc2c([nH]c3ccccc23)[C@@H](c2ccc(Cl)cc2)N1CCO`: the IC50 came out at 724 nM. Consider `C[C@@H]1Cc2c([nH]c3ccccc23)[C@@H](c2ccc(/C=C/C(=O)O)cc2)N1CCO`, for which the IC50 came out at 2290 nM.

Consider `CC(C)CN1[C@H](c2ccc(/C=C/C(=O)O)cc2)c2[nH]c3ccccc3c2C[C@H]1C`, for which the IC50 worked out at 3.6 nM. Take `C[C@@H]1Cc2c([nH]c3ccccc23)[C@@H](c2ccc(Cl)cc2)N1C[C@H](C)C(=O)O`: the IC50 came out at 2090 nM.

Regarding `CC/C(=C(\c1ccc(O)cc1)c1ccc(OCCN(C)C)cc1)c1ccccc1` [[3H]4-OHT], the IC50 came out at 0.794 nM.

For orientation: IC50 means the concentration that inhibits the measured activity by half.
